One assay deals with P2Y purinoceptor 2 (Cricetulus griseus, UniProt P58825).
Assay [1] concerns the target T1, Adenosine receptor A1 (Bos taurus, UniProt P28190).
T1 sequence (P28190 whole entry): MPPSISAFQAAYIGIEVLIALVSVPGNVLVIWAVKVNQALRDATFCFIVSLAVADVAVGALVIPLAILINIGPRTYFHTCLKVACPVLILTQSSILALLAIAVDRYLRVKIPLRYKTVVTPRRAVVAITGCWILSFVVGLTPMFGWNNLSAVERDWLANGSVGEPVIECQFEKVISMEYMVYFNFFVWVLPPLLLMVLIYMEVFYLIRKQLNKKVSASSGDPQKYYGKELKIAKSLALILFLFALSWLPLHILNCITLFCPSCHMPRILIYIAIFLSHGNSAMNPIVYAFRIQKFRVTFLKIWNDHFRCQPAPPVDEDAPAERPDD

The target of another assay is T2, Adenosine receptor A3 (Ovis aries, UniProt P35342).
T2 sequence (P35342 whole entry): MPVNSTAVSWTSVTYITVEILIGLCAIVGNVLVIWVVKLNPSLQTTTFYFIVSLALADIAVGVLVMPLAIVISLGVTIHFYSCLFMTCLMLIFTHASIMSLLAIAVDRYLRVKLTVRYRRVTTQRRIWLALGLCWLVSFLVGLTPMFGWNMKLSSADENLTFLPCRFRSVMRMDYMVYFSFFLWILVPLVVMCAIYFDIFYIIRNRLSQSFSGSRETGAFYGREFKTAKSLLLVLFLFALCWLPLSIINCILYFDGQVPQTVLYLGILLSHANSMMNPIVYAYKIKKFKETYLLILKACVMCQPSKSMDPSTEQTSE

For assay [2], the target named is T3, Adenosine receptor A1 (Cavia porcellus, UniProt P47745).
T3 sequence (P47745 whole entry): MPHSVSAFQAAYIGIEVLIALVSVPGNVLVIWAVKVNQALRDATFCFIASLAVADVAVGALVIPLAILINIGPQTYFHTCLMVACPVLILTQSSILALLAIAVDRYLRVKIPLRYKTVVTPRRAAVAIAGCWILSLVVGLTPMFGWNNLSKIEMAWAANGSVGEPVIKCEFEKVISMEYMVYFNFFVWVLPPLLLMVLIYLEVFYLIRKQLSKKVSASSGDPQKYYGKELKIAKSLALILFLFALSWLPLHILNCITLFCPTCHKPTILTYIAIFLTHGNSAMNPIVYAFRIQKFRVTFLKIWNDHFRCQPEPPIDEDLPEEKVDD

Assay [3] deals with T4, Adenosine receptor A1 (Oryctolagus cuniculus, UniProt P34970).
T4 sequence (P34970 whole entry): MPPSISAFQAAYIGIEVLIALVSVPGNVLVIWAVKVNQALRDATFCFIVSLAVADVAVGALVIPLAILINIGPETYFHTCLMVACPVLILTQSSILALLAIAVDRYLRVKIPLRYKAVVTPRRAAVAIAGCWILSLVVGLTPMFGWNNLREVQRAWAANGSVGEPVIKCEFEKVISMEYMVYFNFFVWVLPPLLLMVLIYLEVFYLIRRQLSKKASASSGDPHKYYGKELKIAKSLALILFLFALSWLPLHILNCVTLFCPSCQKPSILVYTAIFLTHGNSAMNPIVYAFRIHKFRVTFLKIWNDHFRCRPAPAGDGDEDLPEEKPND

The target in assay [4] is T5, Adenosine receptor A1 (Rattus norvegicus, UniProt P25099).
T5 sequence (P25099 whole entry): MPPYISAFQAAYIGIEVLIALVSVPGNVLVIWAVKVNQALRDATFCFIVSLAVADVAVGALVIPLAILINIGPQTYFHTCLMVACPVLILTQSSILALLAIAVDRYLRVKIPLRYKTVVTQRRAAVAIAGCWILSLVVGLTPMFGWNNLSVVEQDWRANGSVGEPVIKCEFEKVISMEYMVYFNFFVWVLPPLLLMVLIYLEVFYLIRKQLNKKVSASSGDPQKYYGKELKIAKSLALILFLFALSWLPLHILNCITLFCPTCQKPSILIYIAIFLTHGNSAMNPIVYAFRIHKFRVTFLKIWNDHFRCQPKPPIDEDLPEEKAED

pKi: −log10 of the molar value. Where “and” joins values, the source holds several entries; their conditions need not be identical. Equal values may be shown once.

The term pKi denotes −log10 of the Ki, conventionally taken in molar units. A higher pKi goes with a small Ki.

Sequence of P2Y purinoceptor 2 (P58825 whole entry): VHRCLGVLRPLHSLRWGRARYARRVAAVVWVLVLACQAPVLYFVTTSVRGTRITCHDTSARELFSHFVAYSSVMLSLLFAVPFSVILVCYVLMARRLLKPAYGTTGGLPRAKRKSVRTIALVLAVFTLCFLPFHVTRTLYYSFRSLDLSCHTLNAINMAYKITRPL

Turning to `CCCn1c(=O)c2[nH]c(C3CCCC3)nc2n(CCC)c1=O` [DPCPX], the pKi on P2Y purinoceptor 2 is 9.85; on Adenosine receptor A1 [1], 10.30; at Adenosine receptor A3 it was 10.00.
As to `CCCn1c(=O)c2[nH]c(-c3ccc(OCC(=O)NCCN)cc3)nc2n(CCC)c1=O` [N-(2-Amino-ethyl)-2-[4-(2,6-dioxo-1,3-dipropyl-2,3,6,9-tetrahydro-1H-purin-8-yl)-phenoxy]-acetamide], the pKi on P2Y purinoceptor 2 is 9.51; at Adenosine receptor A1 [2], 8.83 and 8.26; at Adenosine receptor A1 [3] it was 9.35; on Adenosine receptor A1 [1], 10.52; at Adenosine receptor A3, 10.05; on Adenosine receptor A1 [4], 9.31.
For `Cn1c(=O)c2[nH]c(C3CCCC3)nc2n(C)c1=O` [NSC_1917], the pKi at P2Y purinoceptor 2 was 8.37; on Adenosine receptor A1 [2] it was 7.58; at Adenosine receptor A1 [3], 8.19; on Adenosine receptor A1 [1], 8.85; at Adenosine receptor A3, 8.54; on Adenosine receptor A1 [4], 8.20.
`Cn1c(=O)c2[nH]cnc2n(C)c1=O` [Theophylline (1,3-dimethylxanthine)]: the values for the negative-log Ki (pKi) on P2Y purinoceptor 2, on Adenosine receptor A1 [3] and on Adenosine receptor A3 were 5.34, 5.33 and 5.04, respectively.
